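Five compound concentrations were applied to cells in 96-well plates for 48 hours; endpoints were derived by simple linear interpolation of the resulting dose-response curve. The concentration for 50% growth inhibition is given as GI50.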 Activity calls are given as the source filed them. Cut-off read from the data, not from the text of the source: active = GI50 up to about 1.1 µM and inactive = higher.
Key:
Experiment in all cases: NCI tumour cell line growth inhibition, 48 h
HCT-116 = tested on: HCT-116
HOP-62 = tested on: HOP-62
Hs-578T = tested on: Hs-578T
T47D = tested on: T47D
RXF 393 = tested on: RXF 393
IGROV-1 = tested on: IGROV-1
K562 = tested on: K562
HCC 2998 = tested on: HCC 2998
BT-549 = tested on: BT-549
OVCAR-3 = tested on: OVCAR-3
786-0 = tested on: 786-0
LOX IMVI = tested on: LOX IMVI
TK-10 = tested on: TK-10
KM12 = tested on: KM12
EKVX = tested on: EKVX
SK-MEL-28 = tested on: SK-MEL-28
OVCAR-4 = tested on: OVCAR-4
MDA-MB-435 = tested on: MDA-MB-435
COLO 205 = tested on: COLO 205
M14 = tested on: M14

Measured: GI50

Cc1nn(-c2ccccc2)c(C)c1/C=N/NC(=O)c1sc(=S)n(-c2ccc(Cl)cc2)c1N
inactive: HCT-116 7.74 µM | HOP-62 6.44 µM | Hs-578T 2.4 µM | T47D 16.5 µM | RXF 393 2.15 µM | IGROV-1 1.49 µM | K562 3.52 µM | HCC 2998 18.8 µM | BT-549 21.2 µM | OVCAR-3 60.3 µM | 786-0 3.89 µM | LOX IMVI 3.27 µM | TK-10 1.87 µM | KM12 8.3 µM | EKVX 3.55 µM | SK-MEL-28 5.4 µM | OVCAR-4 3.94 µM | MDA-MB-435 9.64 µM | COLO 205 4.69 µM | M14 5.24 µM

COc1cc2c3c(cc(Cl)nc3c1OC)C(O)(CC(=O)c1ccccc1)C(=O)N2 (stereo not given)
inactive: HCT-116 4.69 µM | HOP-62 19.2 µM | Hs-578T 21.7 µM | T47D 3.56 µM | RXF 393 13.4 µM | IGROV-1 13.2 µM | K562 4.79 µM | HCC 2998 18.5 µM | BT-549 16.4 µM | OVCAR-3 15.6 µM | 786-0 8.93 µM | LOX IMVI 7.01 µM | TK-10 18.1 µM | KM12 17.3 µM | EKVX 5.14 µM | SK-MEL-28 16 µM | OVCAR-4 2.35 µM | MDA-MB-435 1.93 µM | COLO 205 24.3 µM | M14 16.4 µM

O=c1cccc2n1CC1CNC[C@H]2C1 [CYTISINICLINE]
inactive: HCT-116 > 100 µM | HOP-62 > 100 µM | Hs-578T > 100 µM | T47D > 100 µM | RXF 393 > 100 µM | IGROV-1 > 100 µM | K562 > 100 µM | HCC 2998 > 100 µM | BT-549 > 100 µM | OVCAR-3 > 100 µM | 786-0 > 100 µM | LOX IMVI > 100 µM | TK-10 > 100 µM | KM12 > 100 µM | EKVX > 100 µM | SK-MEL-28 > 100 µM | OVCAR-4 > 100 µM | MDA-MB-435 > 100 µM | COLO 205 > 100 µM | M14 > 100 µM
